The target of experiment [1] is T1, PRMT5-MEP50 enzyme complex (Homo sapiens, UniProt O14744).
T1 construct: Full-length (FL)-PRMT5-MEP50 enzyme complex (recombinant proteins from baculovirus-transfected Sf21 cells); made in house; host or cells: baculovirus-transfected Sf21 insect cells
Description: PRMT5-MEP50 Enzyme Methylation Assay. Type of experiment: biochemical. The protocol:
PRMT5-MEP50 biochemical assay is a direct measurement of the methylation activity of the enzyme complex on a short peptide substrate derived from the N-terminus of H4 histone. Methylation experiment is performed with recombinant PRMT5-MEP50 protein complex. The assessment of inhibitory effect of small molecules is measured by the effectiveness of the compounds to inhibit this reaction (EC50).
In this assay, the potency (EC50) of each compound was determined from a twenty-point (1:2 serial dilution; top compound concentration of 100000 nM) titration curve using the following outlined procedure. To each well of a white ProxiPlus 384 well-plate, 100 nL of compound (1% DMSO in final assay volume of 10 μL) was dispensed, followed by the addition of 8 μL of 1× assay buffer (50 mM Bicine pH 8.0, 1 mM DTT, 0.004% Tween20, 0.01% BSA) containing 1.25 nM of Full-length (FL)-PRMT5-MEP50 enzyme complex (recombinant proteins from baculovirus-transfected Sf21 cells: FL-PRMT5; MW=[…] and FL-MEP50; MW=38614) and 1 μL of 150 μM S-(5′-Adenosyl)-L-Methionine Chloride (SAM). Plates were sealed and placed in a 37° C. humidified chamber for a 60 minutes pre-incubation with compound. Subsequently, each reaction was initiated by the addition of 1 μL 1× assay buffer containing 750 nM biotinylated H4R3 (Me1) peptide. The final reaction in each well of 10 μL consists of 1.0 nM PRMT5-MEP50, 75 nM biotinylated-peptide, and 15 μM SAM. Methylation reactions were allowed to proceed for 150 minutes in a sealed plate at 37° C. Reactions were immediately quenched by the addition of 1 μL of 5% formic acid. Plates were then frozen and shipped to SAMDITM Tech Inc. to determine the percent conversion from H4R^3 (Me1) to H4R^3 (Me2). Dose-response curves were generated by plotting percent effect (% product conversion; Y-axis) vs. Log10 compound concentrations (X-axis). EC50 values were determined by non-linear regression according to models for either sigmoidal (4 parameters) or biphasic (7 parameters) dose-response curves.

The target of another experiment is T2, PRMT5 (Homo sapiens, UniProt O14744).
T2 construct: endogenous in cells; host or cells: MCF-7
Description: PRMT5 Cell Target Engagement (TE) Assay. The format is cell-based. To be noted: MCF-7 cells, 3 days treatment, nuclear SDMA by high content imaging. Put shortly:
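MCF-7 cells seeded 5 h, then treated 3 days at 37 °C with 10-point 1:3 dilutions from 10000 nM. Fixed cells immunostained for SDMA with AF488 secondary; nuclear intensity imaged per cell and expressed as % inhibition vs DMSO. EC50 from 4-parameter robust fit.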

Where [2] appears, read: recombinant FL-PRMT5-MEP50, biotinylated H4R3(Me1) peptide, 15 μM SAM, single EC50 (4 parameter sigmoidal fit) or first EC50 of 7 parameter biphasic fit, read-out: Enzyme Methylation Assay (EC50 or EC50_1).
The mark [3] stands for this setting: second EC50 of 7 parameter biphasic fit, read-out: Enzyme Methylation Assay (EC50_2).

Structures are written as SMILES. Read-outs that look alike come from different tables or passages of the source. Where only a bound is given, the exact number is not on record here.

T1 sequence (O14744 whole entry): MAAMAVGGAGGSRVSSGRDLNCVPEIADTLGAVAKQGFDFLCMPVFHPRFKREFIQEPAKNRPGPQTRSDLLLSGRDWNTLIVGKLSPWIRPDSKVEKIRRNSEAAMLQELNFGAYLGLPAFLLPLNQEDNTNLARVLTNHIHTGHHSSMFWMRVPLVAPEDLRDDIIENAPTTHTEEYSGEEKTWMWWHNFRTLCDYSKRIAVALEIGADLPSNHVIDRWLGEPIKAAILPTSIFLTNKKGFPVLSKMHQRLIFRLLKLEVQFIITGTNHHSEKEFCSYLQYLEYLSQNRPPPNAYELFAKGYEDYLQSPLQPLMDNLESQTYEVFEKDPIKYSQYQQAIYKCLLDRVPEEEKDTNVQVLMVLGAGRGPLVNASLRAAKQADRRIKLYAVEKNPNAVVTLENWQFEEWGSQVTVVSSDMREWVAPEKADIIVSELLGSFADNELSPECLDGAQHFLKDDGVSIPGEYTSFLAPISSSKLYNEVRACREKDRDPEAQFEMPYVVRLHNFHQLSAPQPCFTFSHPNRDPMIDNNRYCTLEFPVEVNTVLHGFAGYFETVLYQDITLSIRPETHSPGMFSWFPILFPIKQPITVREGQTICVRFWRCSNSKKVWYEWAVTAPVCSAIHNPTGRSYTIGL
T1 sequence (Q9BQA1 whole entry partner): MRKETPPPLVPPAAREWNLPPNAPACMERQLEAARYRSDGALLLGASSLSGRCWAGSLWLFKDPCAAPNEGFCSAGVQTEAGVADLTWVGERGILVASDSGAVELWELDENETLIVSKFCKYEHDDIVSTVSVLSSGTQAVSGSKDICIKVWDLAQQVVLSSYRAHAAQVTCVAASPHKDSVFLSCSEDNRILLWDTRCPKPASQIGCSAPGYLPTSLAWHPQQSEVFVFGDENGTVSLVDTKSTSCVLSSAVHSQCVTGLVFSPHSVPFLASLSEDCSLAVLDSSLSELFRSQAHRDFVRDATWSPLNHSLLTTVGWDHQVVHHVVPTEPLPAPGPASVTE
T2 sequence (O14744 whole entry): as the sequence (O14744 whole entry) above
T2 sequence (Q9BQA1 whole entry partner): as the sequence (Q9BQA1 whole entry partner) above

Take `C[C@@]1(O)[C@@H]([C@H](O)c2cccc3c2CNCC3)O[C@@H](n2ccc3c(N)ncnc32)[C@@H]1O` [Example 70, 7-[(5R)-3-C-methyl-5-C-(1,2,3,4-tetrahydroisoquinolin-8-yl)-beta-D-ribofuranosyl]-7H-pyrrolo[2,3-d]pyrimidin-4-amine]: the figures for the EC50 (in experiment [1] (setting [2]); in experiment [1] (setting [3]); at PRMT5) were 1.79 nM, 42 nM and 1190 nM, respectively.
The matching figures for `C[C@@]1(O)[C@@H]([C@H](O)c2ccc(Cl)c(Cl)c2)O[C@@H](n2ccc3c(N)ncnc32)[C@@H]1O` [Example 13, 7-[(5R)-5-C-(3,4-dichlorophenyl)-3-C-methyl-beta-D-ribofuranosyl]-7H-pyrrolo[2,3-d]pyrimidin-4-amine]: 1.47 nM, 40 nM and 39 nM.
The corresponding values for `C[C@@]1(O)[C@@H]([C@H](O)c2ccc(F)c(Cl)c2)O[C@@H](n2ccc3c(N)ncnc32)[C@@H]1O` [Example 15, 7-[(5R)-5-C-(3-chloro-4-fluorophenyl)-3-C-methyl-beta-D-ribofuranosyl]-7H-pyrrolo[2,3-d]pyrimidin-4-amine] are 0.51 nM, 75 nM and 65 nM.
For `Cc1ncnc2c1ccn2[C@@H]1O[C@H]([C@H](C)c2cccc3c2CNCC3)[C@@](C)(O)[C@H]1O` [Example 86, (2R,3S,4R,5R)-3-methyl-5-(4-methyl-7H-pyrrolo[2,3-d]pyrimidin-7-yl)-2-((R)-1-(1,2,3,4-tetrahydroisoquinolin-8-yl)ethyl)tetrahydrofuran-3,4-diol], the EC50 in experiment [1] (setting [2]) is 343 nM; in experiment [1] (setting [3]), 33100 nM; at PRMT5 it was over 10000 nM.
The corresponding values for `C=C(c1cccc2c1CNCC2)[C@H]1O[C@@H](n2ccc3c(C)ncnc32)[C@H](O)[C@]1(C)O` [Example 85, (2R,3S,4R,5R)-3-methyl-5-(4-methyl-7H-pyrrolo[2,3-d]pyrimidin-7-yl)-2-(1-(1,2,3,4-tetrahydroisoquinolin-8-yl)vinyl)tetrahydrofuran-3,4-diol] are 34 nM, 2660 nM and 9380 nM.
With `Cc1cccc([C@H](O)[C@H]2O[C@@H](n3ccc4c(N)ncnc43)[C@H](O)[C@]2(C)O)c1` [Example 39, 7-[(5S)-3-C-methyl-5-C-(3-methylphenyl)-beta-D-ribofuranosyl]-7H-pyrrolo[2,3-d]pyrimidin-4-amine], the EC50 on PRMT5 is over 10000 nM.
Take `C[C@@]1(O)[C@@H]([C@@H](O)c2cc(C(F)F)ccn2)O[C@@H](n2ccc3c(N)ncnc32)[C@@H]1O` [Example 73, 7-{(5S)-5-C-[4-(difluoromethyl)pyridin-2-yl]-3-C-methyl-beta-D-ribofuranosyl}-7H-pyrrolo[2,3-d]pyrimidin-4-amine]: the EC50 on PRMT5 is over 10000 nM.
On PRMT5, `C[C@@]1(O)[C@@H]([C@@H](O)c2cc(F)c(F)c(F)c2)O[C@@H](n2ccc3c(N)ncnc32)[C@@H]1O` [Example 35, 7-[(5S)-3-C-methyl-5-C-(3,4,5-trifluorophenyl)-beta-D-ribofuranosyl]-7H-pyrrolo[2,3-d]pyrimidin-4-amine] came in with an EC50 of over 10000 nM.
For `C[C@@]1(O)[C@@H]([C@@H](O)c2cccc3c2CNCC3)O[C@@H](n2ccc3c(N)ncnc32)[C@@H]1O` [Example 71, 7-[(5S)-3-C-methyl-5-C-(1,2,3,4-tetrahydroisoquinolin-8-yl)-beta-D-ribofuranosyl]-7H-pyrrolo[2,3-d]pyrimidin-4-amine], the results for the EC50 (in experiment [1] (setting [2]); in experiment [1] (setting [3]); on PRMT5) were 15.5 nM, 1700 nM and over 10000 nM, respectively.
Molecule `Cc1ccccc1[C@@H](O)[C@H]1O[C@@H](n2ccc3c(N)ncnc32)[C@H](O)[C@]1(C)O` [Example 40, 7-[(5R)-3-C-methyl-5-C-(2-methylphenyl)-beta-D-ribofuranosyl]-7H-pyrrolo[2,3-d]pyrimidin-4-amine] yielded an EC50 at PRMT5 of 2270 nM.
As to `Cc1ncnc2c1ccn2[C@@H]1O[C@H]([C@@H](O)c2cc(C(F)F)c(F)c3c2CNCC3)[C@@](C)(O)[C@H]1O` (single isomer, unassigned) [Example 90], the EC50 on PRMT5 is 7.4 nM.
Same read-out and setting: with `C[C@@]1(O)[C@@H]([C@H](O)c2ccc(F)cc2)O[C@@H](n2ccc3c(N)ncnc32)[C@@H]1O` [Example 24, 7-[(5R)-5-C-(4-fluorophenyl)-3-C-methyl-beta-D-ribofuranosyl]-7H-pyrrolo[2,3-d]pyrimidin-4-amine] the figure was 474 nM.
